From patent US6417327B1, “Peptide capable of regulating physiological function of FGF-5 and pharmaceutical composition containing the peptide” (Agency of Industrial Science and Technology, priority 1999, dated 2002)
No end group written: not given here.

Assays:
Balb/c3T3 cells = assay: Determination of DNA-synthesis-promoting activity (uptake of tritium, 3HTdR) without FGF-5; assay type: cell-based; conditions: test solution FGF-5(-) with heparin, peptide 10^-7 to 10^-3 M, without the addition of FGF-5
Method: (§1) Balb/c3T3 cells (1.5×10^4 cells/500 μl) were plated on a 24-well culture plate and cultured in a DMEM medium for 24 hours in the presence o f 10% FCS. After washing the cells with the medium, a DMEM medium containing 0.3% FCS was added thereto to further culture the cells for 24 hours to synchronize the cells. To the mixture, test solutions [FGF-5(+)] containing heparin (5 μg/ml), one of FGF-5 peptides 1-5 synthesized in Example 1 (10^−7 to 10^−3 M) and the recombinant FGF-5 prepared in Reference Example 1 (10^−10 M) were added. After 16 hours of cultivation, 3 HTdR was added, and the cells were further cultured for 4 hours in a CO2 incubator. The supernatants were aspirated. The cells were washed with PBS, added with 10% TCA (125 μl), and incubated at room temperature. After confirming the immobilization of the cells, the supernatants were discarded. Five-hundred ul of 0.5N NaOH was added and the mixture was further incubated at room temperature for an hour, added with 3 ml scintillator and determined for the uptake of tritium into the cells with a liquid scintillation counter.
The uptake of tritium into cells was determined as described in (1) above with a liquid scintillation counter except that test solutions [FGF-5(−)] containing heparin and one of FGF-5 peptides 1-5 synthesized in Example 1 were used. […]

FGF-5 = assay: Determination of DNA-synthesis-inhibiting activity (uptake of tritium, 3HTdR) in the presence of recombinant FGF-5; assay type: cell-based, mouse; conditions: Balb/c3T3 cells, test solution FGF-5(+) with heparin 5 μg/ml, recombinant FGF-5 10^-10 M, peptide 10^-7 to 10^-3 M
Method: as §1
As controls for the determinations of inhibiting and promoting activities, a test solution containing heparin (5 μg/ml) and the recombinant FGF-5 (10^−10 M) prepared in Reference Example 1 was used.

platelets = assay: Determination of thrombocytosis activity (number of platelets); assay type: in vivo; conditions: ICR mice, intraperitoneal; for increase of platelet: 1 μg/kg
Method: ICR mice (male, 6 weeks old, weights 29-32 g) were grouped into 4 groups of six mice. A test solution containing the above-mentioned FGF-5 peptide 6 was intraperitoneally administered for 10 successive days.
The peptide (3.3 mg/ml) in an injection solution (0.9% saline containing 100 μg/ml bovine serum albumin (Fraction V)) was administered to the mice at 0.3 ml/mouse (33 mg/kg) At the same time, human recombinant thrombopoietin solution (0.1 μg/ml) and human recombinant interleukin 6 solution (0.1 μg/ml) were prepared, and intraperitoneally administered for 0.3 ml per mouse (1 μg/kg). Five μl of blood was collected from the caudal vein of each mouse, and immediately mixed with 20 μl of 3.8% sodium citrate in a test tube. Subsequently, the blood mixtures were serially diluted twice with Cellpack and determined for the number of platelets, as well as to determine the numbers of erythrocytes and hemacrit values with Sysmex F-820 (TOA Electronics Ltd.)

mouse bone marrow cells = assay: Differentiating and proliferating activities to give megakaryocytes (increase of acetylcholineesterase activity); assay type: cell-based; conditions: cultured 4 days, acetylcholineesterase activity by fluorescence
Method: The differentiating and proliferating activities to give megakaryocytes were determined for this peptide, as the increase of acetylcholineesterase activity, by using mouse bone marrow cells as follows.
Bone marrow cells were taken from femur of ICR mouse (male, 6 weeks old), suspended in RPMI 1640 medium containing 1% fetal calf serum (FCS), and centrifuged. The supernatant was removed and the resultant was suspended in RPMI 1640 medium containing 0.5 mM DFP (diisopropylfluorophosphate) and 0.1% BSA (bovine serum albumin), and left to stand at room temperature for 20 min. Thereafter, the cells were washed with the same culture twice and suspended in RPMI 1640 medium containing 1% Neutridoma-SP and 0.1% BSA such that the number of cells was 2×10^6 cells/ml. The thus-prepared bone marrow cell suspension was dispensed in 100 μl into a 96-well culture plate, and cultured with a test solution containing 50 μl of FGF-5 peptide 6 at 37° C. for 4 days in the presence of 5% CO2.
Thereafter, the supernatant was removed, and the resultant was washed with PBS(−) twice and added with 180 μl 50 mM HEPES buffer (pH 7.6) containing 0.2% (w/v) Triton X-100 and 0.12 M NaCl and with 20 ul solution containing 5.6 mM acetylthiocholine iodide. […]

With HEANMLS [FGF-5 peptide 3] the DNA-synthesis-promoting activity (Balb/c3T3 cells) was “promoted DNA synthesis”.
For “Gln Val His Arg (QVHR; SEQ ID NO3 represents a partial sequence (corresponding to amino acids 120-123) of the amino acid sequence of human FGF-5S.) [FGF-5 peptide 5]”, the DNA-synthesis-inhibiting activity (FGF-5) was “inhibited DNA synthesis”.
For “human recombinant thrombopoietin: human recombinant thrombopoietin solution (0.1 μg/ml), comparator in the platelet test”, the increase of platelet (platelets) was “about 1.6 fold”.
With “human recombinant interleukin 6: human recombinant interleukin 6 solution (0.1 μg/ml), comparator in the platelet test” the increase of platelet (platelets) was “about 1.6 fold”.
PDGKVNGSHEANM [FGF-5 peptide 6] was tested, and the “differentiating and proliferating activities to give megakaryocytes” value (mouse bone marrow cells) was “exerts differentiating and proliferating activities to give megakaryocytes” and the “increase of the numbers of platelets” value (platelets; 33 mg/kg, 10 successive days, two to 4 days after the administration) was 1.6 folds.
With “Pro Asp Gly Lys Val Asn Gly Ser His Glu Ala Asn Met Leu Ser GIn Val His Arg (PDGKVNGSHEANMLSQVHR; SEQ ID NO10 represents a partial sequence of the amino acid sequence of human FGF-5.) [FGF-5 peptide 1]” the DNA-synthesis-promoting activity (Balb/c3T3 cells) was “promoted DNA synthesis”.
With HEANMLSQVHR [FGF-5 peptide 4] the DNA-synthesis-inhibiting activity (FGF-5) was “inhibited DNA synthesis”.
